The term IC50 denotes the concentration that gives 50% inhibition.

Some results are limits rather than exact numbers.

In experiment [1] the target is Serine/threonine-protein kinase B-raf (Homo sapiens, UniProt P15056, V600E). The experiment is described as follows: Inhibition of B-raf V600E mutant (unknown origin) expressed in Sf9 cells using biotin-MEK1substrate incubated for 1 hr.
Experiment [2] has as its target Vascular endothelial growth factor receptor 2 (Homo sapiens, UniProt P35968). The experiment is described as follows: Inhibition of KDR (unknown origin) by FRET assay.
Experiment [3] has as its target Mast/stem cell growth factor receptor Kit (Homo sapiens, UniProt P10721). In words: Inhibition of Kit (unknown origin) expressed in Escherichia coli.
Experiment [4] deals with RAF proto-oncogene serine/threonine-protein kinase (Homo sapiens, UniProt P04049). In words: Inhibition of human C-raf using biotin-MEK1 substrate incubated for 1 hr.
Experiment [5] addresses Serine/threonine-protein kinase B-raf (Homo sapiens, UniProt P15056). The experiment is described as follows: Inhibition of N-terminal GST-tagged human recombinant B-Raf (416 to end residues) using biotin-MEK1 substrate incubated for 1 hr.
Experiment [6] addresses Proto-oncogene tyrosine-protein kinase Src (Homo sapiens, UniProt P12931). The experiment is described as follows: Inhibition of Src (unknown origin) expressed in Escherichia coli using biotin-(E4Y)3 substrate.
Experiment [7] addresses Macrophage colony-stimulating factor 1 receptor (Homo sapiens, UniProt P07333). In words: Inhibition of Fms (unknown origin).
Experiment [8] deals with T1, Serine/threonine-protein kinase A-Raf (Homo sapiens, UniProt P10398).
T1 sequence (P10398 whole entry): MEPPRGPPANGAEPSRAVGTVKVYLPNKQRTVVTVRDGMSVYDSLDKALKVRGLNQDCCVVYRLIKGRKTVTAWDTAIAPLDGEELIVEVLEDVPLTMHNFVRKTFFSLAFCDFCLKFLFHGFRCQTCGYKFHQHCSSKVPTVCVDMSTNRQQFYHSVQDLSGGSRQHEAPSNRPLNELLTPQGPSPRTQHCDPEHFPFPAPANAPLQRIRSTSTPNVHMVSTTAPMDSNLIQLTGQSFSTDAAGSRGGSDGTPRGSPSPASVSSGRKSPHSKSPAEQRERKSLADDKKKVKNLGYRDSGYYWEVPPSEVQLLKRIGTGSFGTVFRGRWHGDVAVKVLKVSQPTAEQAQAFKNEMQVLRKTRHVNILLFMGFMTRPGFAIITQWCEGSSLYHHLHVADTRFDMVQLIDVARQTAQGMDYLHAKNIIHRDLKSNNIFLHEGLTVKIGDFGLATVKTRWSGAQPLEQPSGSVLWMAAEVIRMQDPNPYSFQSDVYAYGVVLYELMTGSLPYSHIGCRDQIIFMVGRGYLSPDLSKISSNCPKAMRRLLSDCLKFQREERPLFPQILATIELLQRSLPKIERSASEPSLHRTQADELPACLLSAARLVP
The experiment is described as follows: Inhibition of A-Raf (unknown origin).

The target in experiment [9] is High affinity nerve growth factor receptor (Homo sapiens, UniProt P04629). The experiment is described as follows: Inhibition of TrkA (unknown origin).

Serine/threonine-protein kinase B-raf (Homo sapiens, UniProt P15056, V600E), sequence (P15056 2-766 V600E limits assumed): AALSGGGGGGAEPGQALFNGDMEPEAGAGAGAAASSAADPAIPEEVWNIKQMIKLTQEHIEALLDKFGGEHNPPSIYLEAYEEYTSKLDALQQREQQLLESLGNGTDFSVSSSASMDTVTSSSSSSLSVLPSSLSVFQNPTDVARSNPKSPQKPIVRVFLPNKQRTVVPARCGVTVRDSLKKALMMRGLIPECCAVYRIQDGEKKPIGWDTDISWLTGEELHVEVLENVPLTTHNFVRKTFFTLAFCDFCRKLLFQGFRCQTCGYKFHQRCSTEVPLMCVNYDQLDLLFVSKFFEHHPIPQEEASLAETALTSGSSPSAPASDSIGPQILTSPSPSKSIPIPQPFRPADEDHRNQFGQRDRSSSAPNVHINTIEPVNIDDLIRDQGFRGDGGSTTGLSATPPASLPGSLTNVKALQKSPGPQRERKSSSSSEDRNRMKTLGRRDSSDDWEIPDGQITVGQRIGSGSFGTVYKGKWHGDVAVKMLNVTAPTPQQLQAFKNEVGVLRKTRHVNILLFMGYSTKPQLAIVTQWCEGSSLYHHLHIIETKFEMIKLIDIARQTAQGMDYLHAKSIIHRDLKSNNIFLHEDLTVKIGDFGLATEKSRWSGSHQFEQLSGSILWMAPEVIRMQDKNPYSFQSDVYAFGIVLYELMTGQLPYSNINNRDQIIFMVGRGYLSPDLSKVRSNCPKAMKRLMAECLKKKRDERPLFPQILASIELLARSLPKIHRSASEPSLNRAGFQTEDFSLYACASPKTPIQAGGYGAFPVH
Macrophage colony-stimulating factor 1 receptor, sequence (P07333 whole entry): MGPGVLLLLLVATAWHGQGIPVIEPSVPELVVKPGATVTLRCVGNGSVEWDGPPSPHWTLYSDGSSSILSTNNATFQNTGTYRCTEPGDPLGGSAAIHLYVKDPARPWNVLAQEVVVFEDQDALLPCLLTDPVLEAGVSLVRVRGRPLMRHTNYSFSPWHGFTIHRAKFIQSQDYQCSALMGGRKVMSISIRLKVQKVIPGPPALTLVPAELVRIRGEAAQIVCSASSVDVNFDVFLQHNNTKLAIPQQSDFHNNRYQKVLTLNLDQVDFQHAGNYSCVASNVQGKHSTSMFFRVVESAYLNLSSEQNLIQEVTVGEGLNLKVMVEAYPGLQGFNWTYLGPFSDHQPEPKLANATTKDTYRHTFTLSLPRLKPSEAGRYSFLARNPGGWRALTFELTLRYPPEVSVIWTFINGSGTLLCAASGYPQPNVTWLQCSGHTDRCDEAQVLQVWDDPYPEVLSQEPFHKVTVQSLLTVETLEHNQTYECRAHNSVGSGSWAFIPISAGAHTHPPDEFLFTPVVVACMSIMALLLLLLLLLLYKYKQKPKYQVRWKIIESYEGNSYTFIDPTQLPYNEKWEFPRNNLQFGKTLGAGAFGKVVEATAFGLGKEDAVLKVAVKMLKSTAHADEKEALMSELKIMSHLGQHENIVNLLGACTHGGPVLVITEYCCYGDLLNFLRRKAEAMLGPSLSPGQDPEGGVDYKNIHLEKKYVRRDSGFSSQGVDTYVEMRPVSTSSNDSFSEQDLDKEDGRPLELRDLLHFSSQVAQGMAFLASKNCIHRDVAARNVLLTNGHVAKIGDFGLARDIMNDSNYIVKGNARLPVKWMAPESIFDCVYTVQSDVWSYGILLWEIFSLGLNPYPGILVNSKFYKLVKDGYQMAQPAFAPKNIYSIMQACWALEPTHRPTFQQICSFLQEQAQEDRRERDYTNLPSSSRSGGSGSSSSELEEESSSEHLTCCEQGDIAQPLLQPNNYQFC
Vascular endothelial growth factor receptor 2, sequence (P35968 whole entry): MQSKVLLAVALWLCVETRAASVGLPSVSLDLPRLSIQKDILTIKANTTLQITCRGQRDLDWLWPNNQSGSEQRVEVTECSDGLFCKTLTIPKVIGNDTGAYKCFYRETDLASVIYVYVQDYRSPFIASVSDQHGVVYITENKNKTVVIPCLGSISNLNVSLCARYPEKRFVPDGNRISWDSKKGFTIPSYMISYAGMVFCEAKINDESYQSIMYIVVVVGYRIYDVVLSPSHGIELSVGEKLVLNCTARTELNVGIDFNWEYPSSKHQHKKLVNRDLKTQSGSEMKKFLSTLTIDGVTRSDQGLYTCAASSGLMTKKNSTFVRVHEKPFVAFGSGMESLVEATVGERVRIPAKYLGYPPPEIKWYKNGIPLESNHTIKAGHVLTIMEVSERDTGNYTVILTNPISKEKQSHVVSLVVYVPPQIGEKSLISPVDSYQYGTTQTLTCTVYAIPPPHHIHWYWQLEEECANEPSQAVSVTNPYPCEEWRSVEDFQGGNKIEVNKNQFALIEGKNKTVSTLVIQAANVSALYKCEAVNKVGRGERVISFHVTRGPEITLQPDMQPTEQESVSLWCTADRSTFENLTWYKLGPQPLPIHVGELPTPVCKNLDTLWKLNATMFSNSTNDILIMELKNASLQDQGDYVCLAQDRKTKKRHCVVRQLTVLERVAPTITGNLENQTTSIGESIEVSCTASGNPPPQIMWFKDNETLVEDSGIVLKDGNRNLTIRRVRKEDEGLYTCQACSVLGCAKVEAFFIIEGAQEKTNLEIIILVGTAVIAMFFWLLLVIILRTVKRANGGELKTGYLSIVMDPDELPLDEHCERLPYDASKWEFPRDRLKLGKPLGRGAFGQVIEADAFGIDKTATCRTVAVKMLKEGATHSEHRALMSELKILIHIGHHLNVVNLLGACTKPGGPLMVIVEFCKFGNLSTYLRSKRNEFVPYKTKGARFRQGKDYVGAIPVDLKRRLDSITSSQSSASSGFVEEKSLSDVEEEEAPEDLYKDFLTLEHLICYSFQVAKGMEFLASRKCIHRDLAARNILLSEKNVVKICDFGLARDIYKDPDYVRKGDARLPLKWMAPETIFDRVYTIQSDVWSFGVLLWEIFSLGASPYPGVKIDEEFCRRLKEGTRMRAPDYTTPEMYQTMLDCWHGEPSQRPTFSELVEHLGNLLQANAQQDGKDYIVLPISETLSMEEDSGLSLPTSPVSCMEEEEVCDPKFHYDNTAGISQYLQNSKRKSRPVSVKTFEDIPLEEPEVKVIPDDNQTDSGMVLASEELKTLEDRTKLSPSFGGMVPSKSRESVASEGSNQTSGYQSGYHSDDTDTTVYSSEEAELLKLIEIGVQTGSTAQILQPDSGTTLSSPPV
Proto-oncogene tyrosine-protein kinase Src, sequence (P12931 2-536 limits assumed): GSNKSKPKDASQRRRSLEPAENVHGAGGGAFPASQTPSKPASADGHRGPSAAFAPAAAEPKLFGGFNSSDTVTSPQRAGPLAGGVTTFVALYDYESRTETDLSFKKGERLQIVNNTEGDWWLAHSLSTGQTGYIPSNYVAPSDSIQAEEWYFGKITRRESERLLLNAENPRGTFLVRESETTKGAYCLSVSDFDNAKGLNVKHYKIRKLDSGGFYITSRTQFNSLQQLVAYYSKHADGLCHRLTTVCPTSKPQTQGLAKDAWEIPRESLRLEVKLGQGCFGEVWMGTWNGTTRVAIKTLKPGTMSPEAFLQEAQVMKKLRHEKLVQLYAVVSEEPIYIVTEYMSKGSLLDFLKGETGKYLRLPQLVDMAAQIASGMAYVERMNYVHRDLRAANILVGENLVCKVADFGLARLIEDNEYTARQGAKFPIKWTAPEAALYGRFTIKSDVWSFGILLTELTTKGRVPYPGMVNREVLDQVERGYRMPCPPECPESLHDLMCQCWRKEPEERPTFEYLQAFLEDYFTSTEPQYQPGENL
Serine/threonine-protein kinase B-raf (Homo sapiens, UniProt P15056), sequence (P15056 whole entry): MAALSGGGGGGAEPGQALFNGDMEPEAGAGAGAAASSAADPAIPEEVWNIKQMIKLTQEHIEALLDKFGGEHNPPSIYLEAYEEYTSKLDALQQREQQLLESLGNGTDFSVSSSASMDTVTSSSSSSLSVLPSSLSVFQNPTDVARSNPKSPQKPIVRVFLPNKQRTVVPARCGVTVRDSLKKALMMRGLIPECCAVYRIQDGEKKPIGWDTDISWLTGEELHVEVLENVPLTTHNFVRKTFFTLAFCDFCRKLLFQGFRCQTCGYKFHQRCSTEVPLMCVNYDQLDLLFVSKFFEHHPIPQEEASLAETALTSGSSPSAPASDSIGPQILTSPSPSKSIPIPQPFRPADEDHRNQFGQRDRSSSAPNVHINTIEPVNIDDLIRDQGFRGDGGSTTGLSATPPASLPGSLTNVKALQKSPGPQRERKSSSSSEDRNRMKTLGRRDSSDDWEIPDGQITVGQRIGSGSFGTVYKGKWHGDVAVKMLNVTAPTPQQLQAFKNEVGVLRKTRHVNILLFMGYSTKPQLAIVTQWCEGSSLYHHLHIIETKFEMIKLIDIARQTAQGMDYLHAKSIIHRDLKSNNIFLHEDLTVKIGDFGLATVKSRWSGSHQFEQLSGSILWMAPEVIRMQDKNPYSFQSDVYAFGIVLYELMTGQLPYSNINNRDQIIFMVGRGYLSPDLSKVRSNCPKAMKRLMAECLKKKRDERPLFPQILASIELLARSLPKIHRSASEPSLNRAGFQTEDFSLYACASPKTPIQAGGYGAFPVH
RAF proto-oncogene serine/threonine-protein kinase, sequence (P04049 whole entry): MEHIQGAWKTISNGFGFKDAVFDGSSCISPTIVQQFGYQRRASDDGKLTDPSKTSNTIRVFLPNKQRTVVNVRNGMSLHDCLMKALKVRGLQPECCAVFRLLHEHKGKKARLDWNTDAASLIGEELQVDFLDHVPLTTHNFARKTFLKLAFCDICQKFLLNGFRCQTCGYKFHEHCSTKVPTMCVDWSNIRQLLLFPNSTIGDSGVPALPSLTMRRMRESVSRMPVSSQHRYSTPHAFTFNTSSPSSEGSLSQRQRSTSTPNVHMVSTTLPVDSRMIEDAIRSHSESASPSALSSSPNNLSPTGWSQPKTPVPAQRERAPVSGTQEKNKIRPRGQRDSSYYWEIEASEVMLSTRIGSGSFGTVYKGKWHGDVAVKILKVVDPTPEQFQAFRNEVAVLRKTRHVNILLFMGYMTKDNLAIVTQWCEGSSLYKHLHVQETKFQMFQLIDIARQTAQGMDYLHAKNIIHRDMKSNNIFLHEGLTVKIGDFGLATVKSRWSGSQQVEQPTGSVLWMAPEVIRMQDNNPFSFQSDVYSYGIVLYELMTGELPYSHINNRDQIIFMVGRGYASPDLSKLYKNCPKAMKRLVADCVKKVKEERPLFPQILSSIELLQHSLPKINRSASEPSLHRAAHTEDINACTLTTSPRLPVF

Regarding `O=C(c1cccc(NS(=O)(=O)C2CCC2)c1F)c1c[nH]c2ncncc12`, the IC50 in [1], in experiment [2] and in experiment [3] was not above 10 µM throughout.
Turning to `CN(C)S(=O)(=O)Nc1ccc(F)c(C(=O)c2c[nH]c3ncncc23)c1F`, the IC50 in [1], in experiment [4] and in experiment [2] was not above 10 µM in each case.
On to `O=C(c1cccc(NS(=O)(=O)c2cc(F)ccc2F)c1F)c1c[nH]c2ncncc12`, for which the concentration for half-maximal inhibition (IC50) in experiment [5], in experiment [4], in experiment [2], in experiment [3] and in experiment [6] was not above 10 µM each time.
For `CCCC(C)S(=O)(=O)Nc1cccc(C(=O)c2c[nH]c3ncncc23)c1F` (centres undefined), the IC50 in [2] and in experiment [3] was not above 10 µM each time.
For `CC(C)CS(=O)(=O)Nc1ccc(F)c(C(=O)c2c[nH]c3ncncc23)c1F`, the IC50 in experiment [1], in experiment [4] and in experiment [3] was not above 10 µM each time.
Take `O=C(c1cccc(NS(=O)(=O)C2CCCCC2)c1F)c1c[nH]c2ncncc12`: the 50% inhibitory concentration (IC50) in experiment [1], in [4] and in experiment [3] was not above 10 µM throughout.
In the case of `CCS(=O)(=O)Nc1ccc(F)c(C(=O)c2c[nH]c3ncncc23)c1F`, the IC50 in experiment [1] and in experiment [4] was not above 10 µM each time.
`O=C(c1c(F)ccc(NS(=O)(=O)c2cc(F)ccc2F)c1F)c1c[nH]c2ncncc12`: the IC50 in experiment [5], in experiment [4], in [2] and in [3] was not above 10 µM throughout.
With `O=C(c1c(F)ccc(NS(=O)(=O)N2CCOCC2)c1F)c1c[nH]c2ncncc12`, the IC50 in [1], in experiment [4], in experiment [7] and in experiment [3] was not above 10 µM each time.
In the case of `O=C(c1c(F)ccc(NS(=O)(=O)c2cccc(F)c2)c1F)c1c[nH]c2ncncc12`, the half-inhibitory concentration (IC50) in experiment [5] and in experiment [4] was not above 10 µM in each case.
With `COc1ncnc2[nH]cc(C(=O)c3cccc(NS(=O)(=O)c4ccc(C(F)(F)F)cc4)c3F)c12`, the IC50 in experiment [5], in experiment [4] and in experiment [2] was not above 10 µM throughout.
Take `CCC(C)S(=O)(=O)Nc1cccc(C(=O)c2c[nH]c3ncncc23)c1F` (centres undefined): the IC50 in [1], in experiment [2] and in experiment [3] was not above 10 µM each time.
For the compound `CC(C)(C)c1ccc(S(=O)(=O)Nc2ccc(F)c(C(=O)c3c[nH]c4ncncc34)c2F)cc1`, the IC50 in experiment [1], in experiment [4] and in experiment [2] was not above 10 µM in each case.
For `O=C(c1c(F)ccc(NS(=O)(=O)c2ccccc2F)c1F)c1c[nH]c2ncncc12`, the IC50 in [5], in experiment [4] and in [2] was not above 10 µM throughout.
Turning to `CC(C)c1ccc(S(=O)(=O)Nc2ccc(F)c(C(=O)c3c[nH]c4ncncc34)c2F)cc1`, the IC50 in experiment [8], in [1], in experiment [4] and in experiment [2] was not above 10 µM in each case.
With `O=C(c1c(F)ccc(NS(=O)(=O)C2CCC2)c1F)c1c[nH]c2ncncc12`, the IC50 in experiment [1], in experiment [4] and in experiment [2] was not above 10 µM throughout.
`O=C(c1cccc(NS(=O)(=O)C2CCCC2)c1F)c1c[nH]c2ncncc12`: the IC50 in experiment [1], in [4] and in experiment [2] was not above 10 µM each time.
As for `O=C(c1cccc(NS(=O)(=O)c2ccc(C(F)(F)F)cc2)c1F)c1c[nH]c2ncncc12`, the IC50 in [8], in experiment [5] and in experiment [4] was not above 10 µM in each case.
For the compound `CN(C)S(=O)(=O)Nc1cccc(C(=O)c2c[nH]c3ncncc23)c1F`, the IC50 in experiment [1] and in experiment [3] was not above 10 µM throughout.
With `O=C(c1c(F)ccc(NS(=O)(=O)c2cccc(OC(F)F)c2)c1F)c1c[nH]c2ncncc12`, the IC50 in experiment [8], in experiment [1] and in experiment [4] was not above 10 µM throughout.
`O=C(c1cccc(NS(=O)(=O)c2ccc(F)cc2F)c1F)c1c[nH]c2ncncc12`: the IC50 in experiment [1], in experiment [4] and in [2] was not above 10 µM in each case.
Consider `O=C(c1c(F)ccc(NS(=O)(=O)CC(F)(F)F)c1F)c1c[nH]c2ncncc12`, for which the IC50 in experiment [1] and in [4] was not above 10 µM each time.
For the compound `O=C(c1c(F)ccc(NS(=O)(=O)c2ccccn2)c1F)c1c[nH]c2ncncc12`, the IC50 in experiment [1] and in experiment [4] was not above 10 µM in each case.
`CCCS(=O)(=O)Nc1ccc(F)c(C(=O)c2c[nH]c3ncnc(C)c23)c1F`: the IC50 in [1], in experiment [4], in [7], in experiment [2], in experiment [3] and in [6] was not above 10 µM in each case.
For the compound `O=S(=O)(Nc1ccc(F)c(C(O)c2c[nH]c3ncnc(C4CC4)c23)c1F)c1ccc(C(F)(F)F)cc1` (centres undefined), the IC50 in experiment [7] was not above 10 µM.
As to `CCCc1ccc(S(=O)(=O)Nc2ccc(F)c(C(=O)c3c[nH]c4ncncc34)c2F)cc1`, the IC50 in experiment [8], in experiment [5] and in experiment [4] was not above 10 µM throughout.
`O=C(c1cccc(NS(=O)(=O)c2cccc(F)c2)c1F)c1c[nH]c2ncncc12`: the IC50 in [5] and in [4] was not above 10 µM throughout.
In the case of `CC(C)S(=O)(=O)Nc1ccc(F)c(C(=O)c2c[nH]c3ncncc23)c1F`, the IC50 in [1] and in experiment [2] was not above 10 µM in each case.
Take `CCCS(=O)(=O)Nc1cccc(C(=O)c2c[nH]c3ncncc23)c1F`: the IC50 in experiment [8], in [1] and in experiment [4] was not above 10 µM each time.
Regarding `CC(C)CS(=O)(=O)Nc1cccc(C(=O)c2c[nH]c3ncncc23)c1F`, the IC50 in experiment [1] and in [4] was not above 10 µM throughout.
For `O=C(c1c(F)ccc(NS(=O)(=O)c2ccc(OC(F)F)cc2)c1F)c1c[nH]c2ncncc12`, the IC50 in experiment [8], in experiment [1] and in [4] was not above 10 µM throughout.
In [1], `O=C(c1cccc(NS(=O)(=O)c2ccc(F)cc2)c1F)c1c[nH]c2ncncc12` displayed an IC50 not above 10 µM.
Regarding `O=C(c1cccc(NS(=O)(=O)c2ccccc2F)c1F)c1c[nH]c2ncncc12`, the IC50 in experiment [5], in experiment [4], in experiment [2] and in experiment [6] was not above 10 µM each time.
For the compound `O=C(c1c(F)ccc(NS(=O)(=O)c2ccc(F)cc2)c1F)c1c[nH]c2ncncc12`, the IC50 in experiment [1] and in [4] was not above 10 µM throughout.
Take `COc1ncnc2[nH]cc(C(=O)c3c(F)ccc(NS(=O)(=O)c4ccc(C(F)(F)F)cc4)c3F)c12`: the 50% inhibitory concentration (IC50) in experiment [5], in [4] and in [6] was not above 10 µM in each case.
Turning to `O=C(c1c(F)ccc(NS(=O)(=O)c2ccc(F)cc2F)c1F)c1c[nH]c2ncncc12`, the IC50 in experiment [1], in experiment [4], in experiment [7] and in experiment [2] was not above 10 µM each time.
Turning to `O=C(c1cccc(NS(=O)(=O)c2cccnc2)c1F)c1c[nH]c2ncncc12`, the IC50 in experiment [1] and in experiment [4] was not above 10 µM each time.
For the compound `O=C(c1c(F)ccc(NS(=O)(=O)c2c(F)cccc2F)c1F)c1c[nH]c2ncncc12`, the IC50 in experiment [1], in [4] and in experiment [2] was not above 10 µM in each case.
In the case of `O=C(c1c(F)ccc(NS(=O)(=O)CCC(F)(F)F)c1F)c1c[nH]c2ncncc12`, the IC50 in [1], in experiment [4] and in experiment [3] was not above 10 µM in each case.
As to `CCCS(=O)(=O)Nc1cccc(C(=O)c2c[nH]c3ncnc(OC)c23)c1F`, the IC50 in experiment [5], in [4], in experiment [2], in experiment [3] and in experiment [6] was not above 10 µM each time.
Take `O=C(c1c(F)ccc(NS(=O)(=O)C2CCCCC2)c1F)c1c[nH]c2ncncc12`: the IC50 in experiment [1], in experiment [4], in experiment [7], in [2] and in [3] was not above 10 µM each time.
With `CCC(C)S(=O)(=O)Nc1ccc(F)c(C(=O)c2c[nH]c3ncncc23)c1F` (centres undefined), the IC50 in experiment [1] and in [4] was not above 10 µM each time.
Turning to `O=C(c1cccc(NS(=O)(=O)N2CCCC2)c1F)c1c[nH]c2ncncc12`, the IC50 in experiment [1] and in [4] was not above 10 µM throughout.
In the case of `O=C(c1cccc(NS(=O)(=O)CC(F)(F)F)c1F)c1c[nH]c2ncncc12`, the IC50 in experiment [1], in experiment [4] and in experiment [9] was not above 10 µM throughout.

The values above are taken from ChEMBL document CHEMBL3727342, “Compounds and methods for kinase modulation, and indications therefor” (2012).
